{"source": "patent US20230365682A1", "about": "“COMBINATION THERAPY FOR TREATING COLORECTAL CANCER” (Gilead Sciences, Inc., priority 2022, published 2023)", "key": {"colorectal cancer cells": {"tested_on": "colorectal cancer cells", "experiment": "Cell growth inhibition (Cell-titer Glo, ATP)", "format": "cell-based", "conditions": "24, 48, and 72 hours of drug treatment; normalized to DMSO control", "experimental": "Tumor cells were treated with titrations of irinotecan, oxaliplatin, or vehicle control and monitored for growth after 24, 48, and 72 hours of drug treatment. Cell growth was indirectly determined using a commercially available reagent (Promega, Cell-titer Glo®) which measures intracellular adenosine triphosphate (ATP) levels and directly correlates to the number of live cells. […] DMSO=dimethyl sulfoxide; Oxa=oxaliplatin; SN-38=irinotecan."}, "LS-174T or HCT-116 cells": {"tested_on": "LS-174T or HCT-116 cells", "experiment": "In vitro phagocytosis of pretreated tumor cells by monocyte-derived macrophages", "format": "cell-based", "conditions": "24 hours pretreatment; 2:1 target to effector ratio, 2 hours coculture", "experimental": "(§1) A. LS 174T cells were incubated with titrations of irinotecan for 24 hours, washed, and stained for CALR and PS. Flow cytometry was used to analyze and quantify the frequency of stained cells. The shaded areas indicate reported IC50 for each drug. B. LS-174T or HCT-116 cells were pretreated for 24 hours with irinotecan or oxaliplatin at the indicated concentration. The tumor cells were washed, CFSE labeled and cocultured with monocyte-derived macrophages at a 2:1 target to effector ratio for 2 hours. The phagocytic index, defined as the percentage of the macrophages that engulfed tumor cells out of total macrophages, was quantified using flow cytometry. 5F9, Magro=magrolimab; CALR=calreticulin; CFSE=carboxyfluorescein succinimidyl ester; hr=hour; IC50=half-maximal inhibitory concentration; MFI=median fluorescence intensity; PBS=phosphate buffered saline; PS=phosphatidyl serine; SN 38=irinotecan."}, "LS 174T cells": {"tested_on": "LS 174T cells", "experiment": "Flow cytometry of prophagocytic receptors (CALR, PS) after 24 hours of drug", "format": "cell-based", "conditions": "24 hours incubation; CALR and PS staining", "experimental": "as §1"}, "mCRC": {"tested_on": "mCRC", "conditions": "cited from earlier work"}, "[1]": {"conditions": "with 1 mg/kg priming dose, then repeated therapeutic doses; cited from earlier work"}, "[2]": {"experiment": "Clinical safety of magrolimab", "conditions": "human, in vivo", "experimental": "In the first-in-human study of magrolimab in patients with solid tumors and lymphomas, after an initial priming dose of 1 mg/kg on the first day, magrolimab was tested as a monotherapy at weekly doses of up to 45 mg/kg. The use of an initial 1 mg/kg priming dose was integrated into the dosing regimen to mitigate the on-target anemia induced by CD47 blockade. An initial priming dose leads to elimination of aged RBCs that are sensitive to CD47 blockade and triggers reticulocytosis of young RBCs that are not affected by CD47 blockade (Chen, et al., Blood (ASH Annual Meeting Abstracts) (2018) 132 (Suppl 1):2327). […] Based on PK-PD modeling, a maintenance dose of 30 mg/kg every 2 weeks is expected to provide more than 90% occupancy of the CD47 receptor in peripheral blood and tumor tissues and thus is expected to provide maximal efficacy while maintaining adequate safety. In solid tumors where the combination therapy is given according to 3-week cycles, dosing of magrolimab every 3 weeks optimizes patient and caregiver convenience. […]\nUp to 6 other patients will then be enrolled and evaluated at a lower dose level in the same manner. • Once the RP2D is determined, the sponsor will open the Randomized Cohort."}, "[3]": {"conditions": "continuation on bevacizumab versus standard chemotherapy alone"}}, "note": "“Also recorded” adds a separate entry of the source."}
{"compound": "CCc1c2c(nc3ccc(OC(=O)N4CCC(N5CCCCC5)CC4)cc13)-c1cc3c(c(=O)n1C2)COC(=O)[C@]3(O)CC", "note": "[irinotecan]", "values": [{"measurement": "growth inhibition", "setting": "colorectal cancer cells", "value": "growth inhibition; also recorded: more likely to undergo growth inhibition"}, {"measurement": "phagocytosis of colorectal cancer cells", "setting": "LS-174T or HCT-116 cells", "value": "promotes the in vitro phagocytosis of colorectal cancer cells; also recorded: more effective than oxaliplatin"}, {"measurement": "cell surface expression of prophagocytic receptors", "setting": "LS 174T cells", "value": "upregulates the expression of prophagocytic receptors; also recorded: more effective than oxaliplatin"}]}
{"compound": "O=C1[O][Pt]2([NH][C@@H]3CCCC[C@H]3[NH]2)[O]C1=O", "note": "[oxaliplatin]", "values": [{"measurement": "growth inhibition", "setting": "colorectal cancer cells", "value": "growth inhibition"}]}
{"compound": "bevacizumab: humanized monoclonal antibody targeting circulatory VEGF and preventing tumor angiogenesis", "values": [{"measurement": "PFS", "setting": "mCRC; continuation on bevacizumab after progression on first-line chemotherapy, standard chemotherapy alone 4.1 months", "value": 5.7, "unit": "months"}, {"measurement": "OS", "setting": "mCRC; continuation on bevacizumab after progression on first-line chemotherapy, standard chemotherapy alone 9.9 months", "value": 11.2, "unit": "months"}, {"measurement": "OS HR", "setting": "mCRC; [3]", "value": 0.81}, {"measurement": "PFS HR", "setting": "mCRC; [3]", "value": 0.68}]}
{"compound": "magrolimab: humanized anti-CD47 mAb (human IgG4) that blocks the interaction of CD47 with its receptor and enables phagocytosis of human cancer cells", "values": [{"measurement": "anemia", "setting": "[1]", "value": "initial, transient, and mild anemia that generally normalizes back to baseline over several weeks"}, {"measurement": "dose-dependent toxicities", "setting": "[2]", "value": "no dose-dependent toxicities have been observed"}]}
